ChEMBL document CHEMBL1201862, “PubChem BioAssay data set” (2004)
Active and inactive are the calls of the source.

Legend:
[1] = biological target: FAD-linked sulfhydryl oxidase ALR (Homo sapiens, UniProt P55789); experiment: inhibitors of human ALR sulfhydryl oxidase, dose response, biochemical, H2O2 detection, luminescence, cherry-pick (AID 493248)
Fatty acid synthase [2] = biological target: T1, Fatty acid synthase (Homo sapiens, UniProt P49327); experiment: FAS thioesterase domain inhibitors, dose response, biochemical, endpoint fluorescence intensity, uHTS hits (AID 624327); type: functional;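 further: fluorescence from hydrolysis of an O-methyl fluorescein acyl ester substrate by the enzyme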
Fatty acid synthase [3] = biological target: T1, Fatty acid synthase; experiment: FAS thioesterase domain inhibitors, dose response, biochemical, kinetic fluorescence intensity (AID 624326); type: functional;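 further: rate of fluorescence rise from hydrolysis of a fluorogenic O-methyl fluorescein ester substrate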
[4] = biological target: T2, Heat shock factor protein 1 (Mus musculus, UniProt P38532); experiment: inhibition of MG132-induced HSE-luciferase signal, confirmation, cell-based, NIH3T3, luminescence, dose retest (AID 2382); type: functional;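 further: NIH3T3 fibroblasts with HSF1-driven luciferase reporter stressed by proteasome inhibitor MG132; luminescence from HSF1-driven luciferase expression after 8 hours of MG132 stress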
T2 sequence (P38532 whole entry): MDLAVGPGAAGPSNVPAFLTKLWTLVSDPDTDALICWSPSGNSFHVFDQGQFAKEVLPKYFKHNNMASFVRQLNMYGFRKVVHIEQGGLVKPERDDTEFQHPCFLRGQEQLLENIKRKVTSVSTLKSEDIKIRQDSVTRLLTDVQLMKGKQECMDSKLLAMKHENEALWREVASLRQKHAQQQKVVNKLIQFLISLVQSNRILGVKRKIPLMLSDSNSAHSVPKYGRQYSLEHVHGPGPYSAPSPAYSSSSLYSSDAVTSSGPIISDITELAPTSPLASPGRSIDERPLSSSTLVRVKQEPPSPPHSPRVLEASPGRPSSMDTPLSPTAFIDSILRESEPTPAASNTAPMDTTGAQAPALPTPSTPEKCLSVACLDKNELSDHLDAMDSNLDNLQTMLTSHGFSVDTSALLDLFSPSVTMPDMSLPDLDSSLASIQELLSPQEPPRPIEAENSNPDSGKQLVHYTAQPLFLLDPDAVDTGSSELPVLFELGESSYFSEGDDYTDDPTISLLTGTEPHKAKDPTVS

[5] = biological target: T3, Polyadenylate-binding protein 1 (Homo sapiens, UniProt P11940); experiment: PABP1 MLLE–PAM2 interaction inhibitors, dose response, miRNA deadenylation inhibitor project, biochemical, fluorescence polarization, Cy5-PAM2 peptide, secondary (AID 602260); type: functional; conditions: read-out: IC50_Mean
[6] = biological target: T3, Polyadenylate-binding protein 1; experiment: PABP1 MLLE–PAM2 binding inhibitor potency, dose response, biochemical, fluorescence polarization, FITC-PAM2 peptide (AID 602259); type: functional; conditions: read-out: IC50_Mean
[7] = HEp-2 cell cytotoxicity, dose response, cytotoxicity control for RSV inhibitor project, HTS (AID 2410); type: functional; conditions: human respiratory syncytial virus
[8] = inhibitors of firefly luciferase expression or activity, dose response, H4 neuroglioma cells, luminescence (AID 1990); type: functional, cell-based
[9] = Luminescence Cell-Based Dose Response HTS to Identify Inhibitors of 5'UTR Stem-Loop Driven Prion Protein mRNA Translation in H4 Neuroglioblastoma Cells. [Related pubchem assays: 1827 (Project Summary), 1813 (Primary HTS)]; type: functional
[10] = inhibitors of SNCA 5'UTR-driven reporter translation, confirmation, H4 neuroglioma cells, luminescence (AID 1988); type: functional, cell-based
[11] = inhibitors of intracellular T. cruzi replication, confirmation, NIH3T3 host cells, beta-gal luminescence (AID 2044); type: functional, cell-based;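 further: intracellular parasites grown in NIH/3T3 mouse fibroblasts as host cells; luminescent beta-galactosidase reporter signal from transgenic T. cruzi replicating inside host cells; inhibitors lower the luminescence signal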
[12] = cytotoxicity toward NIH3T3 fibroblasts, dose response, counter-screen, cell-based, ATP luminescence, mouse fibroblasts (AID 2010); type: functional;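 further: cells exposed to compound for about 90 hours before reading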
INS1 = experiment: beta cell apoptosis inhibitors, cytokine rescue, dose response, luminescence, retest (AID 449756); type: functional, cell-based; conditions: Rattus norvegicus;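 further: cell death triggered by IL-1 beta plus TNF-alpha plus IFN-gamma mixture; protective hits raise ATP signal compared with cytokine alone wells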
Protein skinhead-1 = biological target: T4, Protein skinhead-1 (Caenorhabditis elegans, UniProt P34707); type: functional
T4 sequence (P34707 whole entry): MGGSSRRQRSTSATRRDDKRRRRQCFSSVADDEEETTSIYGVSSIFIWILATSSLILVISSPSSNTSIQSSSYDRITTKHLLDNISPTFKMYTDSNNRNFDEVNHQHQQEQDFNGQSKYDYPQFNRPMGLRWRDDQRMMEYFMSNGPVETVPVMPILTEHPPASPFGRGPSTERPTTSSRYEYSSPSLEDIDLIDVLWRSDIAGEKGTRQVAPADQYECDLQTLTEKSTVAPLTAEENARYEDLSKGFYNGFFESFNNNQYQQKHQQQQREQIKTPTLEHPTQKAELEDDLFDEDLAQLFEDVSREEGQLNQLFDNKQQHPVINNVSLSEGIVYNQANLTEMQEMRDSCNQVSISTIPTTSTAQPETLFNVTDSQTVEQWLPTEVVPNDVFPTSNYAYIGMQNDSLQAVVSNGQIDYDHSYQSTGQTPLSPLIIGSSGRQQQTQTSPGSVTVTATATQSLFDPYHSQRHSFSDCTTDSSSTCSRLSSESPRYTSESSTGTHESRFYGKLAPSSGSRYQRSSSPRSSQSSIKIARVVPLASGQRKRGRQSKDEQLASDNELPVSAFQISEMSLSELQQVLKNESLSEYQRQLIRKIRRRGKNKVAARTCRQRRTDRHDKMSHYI

cells = type: functional
[13] = growth suppression of PTEN-null colon cells, dose response, cell-based, HCT116 PTEN knockout (AID 1047); type: functional;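 further: HCT116 colon tumor cells with PTEN knocked out; cells exposed to compound for 60 hours before readout; potency for loss of cell viability measured by luminescence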
[14] = growth suppression of beta-catenin-knockout colon cells, dose response, cell-based, HCT116, human colon tumor (AID 1045); type: functional;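 further: HCT116 colon tumor cells with beta catenin knocked out; cells exposed to compound for 60 hours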
[15] = Luminescence Cell-Based Dose Response HTS to Identify Activators of Luciferase Translation or Activity in H4 […] Cells. [Related pubchem assays: 1829 (Project Summary), 1814 (Primary HTS)]; type: functional
H4 = experiment: Luminescence Cell-Based Dose Response HTS to Identify Activators of 5'UTR Stem-Loop Driven Prion Protein mRNA Translation in H4 Neuroglioblastoma Cells. [Related pubchem assays: 1829 (Project Summary), 1814 (Primary HTS)]; type: functional; conditions: Homo sapiens

Sequence of FAD-linked sulfhydryl oxidase ALR (P55789 whole entry, the tested form may be a part): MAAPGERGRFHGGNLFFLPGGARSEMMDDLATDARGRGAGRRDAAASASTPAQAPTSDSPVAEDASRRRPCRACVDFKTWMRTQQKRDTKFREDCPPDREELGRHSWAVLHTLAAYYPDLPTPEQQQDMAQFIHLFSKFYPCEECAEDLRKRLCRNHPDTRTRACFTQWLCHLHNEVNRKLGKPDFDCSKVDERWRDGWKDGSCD
T3 sequence (P11940 whole entry): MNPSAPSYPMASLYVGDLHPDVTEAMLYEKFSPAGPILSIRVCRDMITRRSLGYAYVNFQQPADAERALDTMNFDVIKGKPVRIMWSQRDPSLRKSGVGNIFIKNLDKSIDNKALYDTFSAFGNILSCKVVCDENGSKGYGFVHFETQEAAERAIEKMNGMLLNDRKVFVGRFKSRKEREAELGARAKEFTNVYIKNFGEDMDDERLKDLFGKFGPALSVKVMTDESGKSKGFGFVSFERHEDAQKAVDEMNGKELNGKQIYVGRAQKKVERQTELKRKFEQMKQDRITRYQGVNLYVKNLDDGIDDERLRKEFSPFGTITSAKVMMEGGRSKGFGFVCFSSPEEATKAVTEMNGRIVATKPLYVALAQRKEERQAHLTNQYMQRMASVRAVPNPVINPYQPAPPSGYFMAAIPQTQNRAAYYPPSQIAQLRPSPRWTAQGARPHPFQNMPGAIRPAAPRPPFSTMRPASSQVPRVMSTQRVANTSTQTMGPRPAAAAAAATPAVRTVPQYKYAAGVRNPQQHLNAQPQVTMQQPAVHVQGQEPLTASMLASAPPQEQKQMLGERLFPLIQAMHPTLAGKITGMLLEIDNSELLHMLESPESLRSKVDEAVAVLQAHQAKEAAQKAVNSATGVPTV
T1 sequence (P49327 whole entry, the tested form may be a part): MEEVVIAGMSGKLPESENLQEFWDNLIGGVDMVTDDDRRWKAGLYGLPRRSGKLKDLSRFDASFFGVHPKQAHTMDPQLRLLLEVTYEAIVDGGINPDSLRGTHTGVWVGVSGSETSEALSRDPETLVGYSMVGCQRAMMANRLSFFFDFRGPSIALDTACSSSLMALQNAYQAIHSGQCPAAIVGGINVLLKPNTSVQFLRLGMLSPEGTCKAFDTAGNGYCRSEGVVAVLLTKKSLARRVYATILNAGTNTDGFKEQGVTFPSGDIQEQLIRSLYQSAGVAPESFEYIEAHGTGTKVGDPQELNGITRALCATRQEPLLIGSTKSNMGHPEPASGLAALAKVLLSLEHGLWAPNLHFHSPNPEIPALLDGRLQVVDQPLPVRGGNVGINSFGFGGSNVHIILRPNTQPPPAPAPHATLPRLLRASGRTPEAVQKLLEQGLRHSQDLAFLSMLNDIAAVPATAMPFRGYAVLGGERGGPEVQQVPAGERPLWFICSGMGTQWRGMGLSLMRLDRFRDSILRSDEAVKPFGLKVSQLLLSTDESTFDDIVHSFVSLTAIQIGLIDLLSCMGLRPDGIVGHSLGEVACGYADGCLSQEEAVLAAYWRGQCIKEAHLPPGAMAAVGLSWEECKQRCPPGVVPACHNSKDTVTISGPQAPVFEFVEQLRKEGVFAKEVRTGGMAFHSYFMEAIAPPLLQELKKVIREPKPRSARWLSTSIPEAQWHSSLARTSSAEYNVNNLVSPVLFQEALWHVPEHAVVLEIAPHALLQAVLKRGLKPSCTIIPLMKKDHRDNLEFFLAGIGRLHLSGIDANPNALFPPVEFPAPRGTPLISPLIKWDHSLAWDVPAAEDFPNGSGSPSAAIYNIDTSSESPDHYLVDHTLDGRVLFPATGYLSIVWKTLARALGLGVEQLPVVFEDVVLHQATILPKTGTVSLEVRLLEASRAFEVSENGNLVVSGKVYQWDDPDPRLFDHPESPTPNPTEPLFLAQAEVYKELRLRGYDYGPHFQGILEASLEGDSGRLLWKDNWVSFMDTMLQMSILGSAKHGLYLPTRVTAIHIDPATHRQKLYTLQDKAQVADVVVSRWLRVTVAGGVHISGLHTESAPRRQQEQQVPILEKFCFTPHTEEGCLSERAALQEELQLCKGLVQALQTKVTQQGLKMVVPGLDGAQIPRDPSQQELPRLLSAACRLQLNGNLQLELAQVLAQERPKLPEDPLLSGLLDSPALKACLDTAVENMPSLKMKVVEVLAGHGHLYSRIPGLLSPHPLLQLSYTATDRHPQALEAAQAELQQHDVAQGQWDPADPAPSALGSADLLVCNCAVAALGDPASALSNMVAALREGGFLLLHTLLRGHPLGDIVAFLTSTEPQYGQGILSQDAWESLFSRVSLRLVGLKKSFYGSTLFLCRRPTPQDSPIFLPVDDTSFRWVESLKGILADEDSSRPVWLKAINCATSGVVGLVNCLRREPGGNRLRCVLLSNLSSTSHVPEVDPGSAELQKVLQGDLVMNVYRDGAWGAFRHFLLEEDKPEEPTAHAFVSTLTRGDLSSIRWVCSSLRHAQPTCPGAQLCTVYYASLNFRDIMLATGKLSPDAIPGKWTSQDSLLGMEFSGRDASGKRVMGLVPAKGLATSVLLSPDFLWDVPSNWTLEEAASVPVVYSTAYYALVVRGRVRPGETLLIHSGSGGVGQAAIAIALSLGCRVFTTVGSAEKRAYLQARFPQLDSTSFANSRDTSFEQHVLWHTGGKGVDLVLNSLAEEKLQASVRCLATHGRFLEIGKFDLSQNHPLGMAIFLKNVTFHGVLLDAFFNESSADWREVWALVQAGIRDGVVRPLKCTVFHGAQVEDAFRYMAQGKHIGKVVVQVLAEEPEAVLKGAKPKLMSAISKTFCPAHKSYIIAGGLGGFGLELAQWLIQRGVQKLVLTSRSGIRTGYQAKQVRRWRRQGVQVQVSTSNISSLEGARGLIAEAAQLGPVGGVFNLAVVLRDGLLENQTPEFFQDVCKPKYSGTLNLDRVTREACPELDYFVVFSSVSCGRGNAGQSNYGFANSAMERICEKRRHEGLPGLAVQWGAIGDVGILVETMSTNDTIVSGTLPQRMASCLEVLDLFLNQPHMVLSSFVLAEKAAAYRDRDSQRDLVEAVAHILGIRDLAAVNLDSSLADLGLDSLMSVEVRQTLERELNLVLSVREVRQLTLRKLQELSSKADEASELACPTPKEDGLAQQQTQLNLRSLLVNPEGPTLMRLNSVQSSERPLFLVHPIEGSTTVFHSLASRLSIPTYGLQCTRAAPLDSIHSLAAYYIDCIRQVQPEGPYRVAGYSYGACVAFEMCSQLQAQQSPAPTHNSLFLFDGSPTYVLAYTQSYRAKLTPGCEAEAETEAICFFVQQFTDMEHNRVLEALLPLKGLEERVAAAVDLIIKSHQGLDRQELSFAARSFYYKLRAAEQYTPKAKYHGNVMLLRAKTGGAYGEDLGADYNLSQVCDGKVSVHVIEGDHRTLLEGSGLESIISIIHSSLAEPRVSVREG

O=S(=O)(O)c1ccc(N2N=C(c3ccccc3)CC2c2ccccc2)cc1 (centres undefined)
AC50 [1]: 10.9 µM (active)

CC(=O)c1cccc(OC(=O)Oc2cccc(C(C)=O)c2)c1
IC50 (Fatty acid synthase [2]): 10.5 µM (active)
IC50 (Fatty acid synthase [3]): 6.11 µM (active)

Cc1ccc(F)cc1N=C(S)NCCc1ccccc1
EC50 [4]: > 195 µM (not active)

CCN(CC(=O)Nc1c(F)cccc1F)C(=O)Cc1ccc2c(c1)CCC2
IC50 [5]: > 66 µM (inactive)
IC50 [6]: > 66 µM (inactive)

CC[n+]1c(/C=C/c2cc([N+](=O)[O-])ccc2O)ccc2ccccc21
CC50 [7]: 36.9 µM (active)
EC50 [4]: > 195 µM (not active)

CSc1nccn1CC(=O)Nc1ccc(F)cc1
AC50 [1]: 2.88 µM (active)

CCOC(=O)N1CCN(Cc2c(O)ccc3ccccc23)CC1
IC50 [5]: > 66 µM (inactive)
IC50 [6]: > 66 µM (inactive)

COc1cccc(NC(=O)N2CCCC2C(=O)NC(C)C)c1 (centres undefined)
EC50 [4]: 152 µM (active)

CN1C[C@H](C(=O)N[C@]2(C)O[C@@]3(O)[C@@H]4CCCN4C(=O)[C@H](Cc4ccccc4)N3C2=O)CC2c3cccc4[nH]cc(c34)C[C@H]21 (some centres undefined)
IC50 (Fatty acid synthase [2]): 9.27 µM (active)
IC50 (Fatty acid synthase [3]): 15.6 µM (active)

COc1ccc(C2C=C(c3ccc(C)cc3)Nc3ncnn32)cc1 (centres undefined)
IC50 [5]: > 66 µM (inactive)
IC50 [6]: > 66 µM (inactive)

O=C(NC1CCCCC1)C1CC(=O)N(c2cccc([N+](=O)[O-])c2)C1 (centres undefined)
IC50 (Fatty acid synthase [2]): 3.47 µM (active)
IC50 (Fatty acid synthase [3]): 1.89 µM (active)

CNC(=S)NN=C(C)c1ccc(OC)cc1O
IC50 [5]: > 66 µM (inactive)
IC50 [6]: > 66 µM (inactive)

COc1cc(CNC(C)c2ccccc2)cc(Br)c1OCc1ccc(F)cc1 (centres undefined)
EC50 [8]: 19.2 µM (active)
EC50 [9]: > 120 µM (not active)
EC50 [10]: 17.7 µM (active)
EC50 [11]: 2.41 µM (active)
EC50 [12]: > 60 µM (not active)
AC50 (INS1): 6.99 µM (active)
IC50 (Protein skinhead-1): 7.7 µM (active)

CC(=O)Nc1ccc(NC(=O)c2cc([N+](=O)[O-])cc([N+](=O)[O-])c2)cc1
EC50 [11]: 1.63 µM (active)
EC50 [12]: > 60 µM (not active)
IC50 (cells): 13.9 µM (active)

O=C(NC(=S)Nc1cc([N+](=O)[O-])ccc1O)c1cccnc1
IC50 [5]: > 66 µM (inactive)
IC50 [6]: > 66 µM (inactive)

c1ccc(Cc2nnc3sc(-c4ccncc4)nn23)cc1
IC50 [5]: > 66 µM (inactive)
IC50 [6]: > 66 µM (inactive)

O=C(CNC(=O)c1cccnc1)N/N=C/c1cc(Br)c(O)c(Br)c1
EC50 [4]: > 195 µM (not active)

Cc1ccc(Oc2ccc(S(=O)(=O)Nc3ccc(C(=O)O)cc3)cc2)cc1
AC50 [1]: 0.714 µM (active)

O=C(OCc1nnc(-c2ccccc2)o1)c1cc([N+](=O)[O-])ccc1Cl
IC50 (cells): 11.8 µM (active)

Cc1ccc(S(=O)(=O)N(C)CC(=O)Nc2ccccc2N2CCCC2)cc1
AC50 [1]: 2.39 µM (active)

O=C(Nc1nnc(-c2ccccc2Cl)o1)c1ccco1
IC50 (cells): 11.8 µM (active)

O=C(COc1ccc(C(=S)N2CCOCC2)cc1Cl)Nc1ccccc1Cl
IC50 [5]: > 66 µM (inactive)
IC50 [6]: > 66 µM (inactive)

CCn1c2ccccc2c2nnc(SCc3ccc(C(=O)OC)o3)nc21
IC50 [5]: > 66 µM (inactive)
IC50 [6]: > 66 µM (inactive)

O=C(c1cccs1)N1CCN=C1SCc1cccnc1
AC50 [1]: 1.27 µM (active)

Cc1cc(N2CCN(S(=O)(=O)c3ccc(Cl)cc3)CC2)c2ccccc2n1
EC50 [13]: 26.3 µM (active)
EC50 [14]: 24.9 µM (active)
AC50 (INS1): 6.39 µM (active)

CC(C)(C)c1ccc(OCCSc2nc3ccccc3n2CC(=O)O)cc1
IC50 (Fatty acid synthase [2]): 2.39 µM (active)
IC50 (Fatty acid synthase [3]): 2.14 µM (active)

O=C(COC(=O)c1cc([N+](=O)[O-])ccc1N1CCCC1)Nc1ccccc1OC(F)F
IC50 (Fatty acid synthase [2]): 8.72 µM (active)
IC50 (Fatty acid synthase [3]): 9.1 µM (active)

CNC(=O)NC(=S)NC(=O)c1ccccc1Cl
EC50 [4]: > 195 µM (not active)

COC(=O)c1cc(S(=O)(=O)NCCc2ccccc2)c[nH]1
EC50 [4]: > 195 µM (not active)

O=C1CCC(=O)N1c1ccc(CSc2nc3ccccc3[nH]2)cc1
AC50 [1]: 1.22 µM (active)

CCCOc1ccc(Cc2c(Cl)nc(SC)nc2NC)cc1
AC50 (INS1): 3.53 µM (active)

CCN(CC)c1ccc(NS(=O)(=O)c2cn(C)c(=O)n(C)c2=O)c(C)c1
AC50 [1]: 0.789 µM (active)

Cc1occc(=O)c1OC(=O)Nc1ccc(Cl)c(Cl)c1
AC50 (INS1): 5.88 µM (active)

CC(=O)Oc1ccc(/C=N/NC(=O)C2CCCN2S(=O)(=O)c2ccc(Cl)cc2)cc1 (centres undefined)
AC50 [1]: 12.7 µM (active)

COc1ccc([C@H]2CC(=O)C=C(c3ccc(C)c([N+](=O)[O-])c3)C2)cc1
IC50 (Fatty acid synthase [2]): 2.65 µM (active)
IC50 (Fatty acid synthase [3]): 2.14 µM (active)

O=C(c1ccccc1-c1nc(-c2ccc(Cl)cc2)no1)N1CCCC1
EC50 [15]: 8.33 µM (active)
EC50 (H4): 99.2 µM (active)

CCCc1nnc(NC(=O)c2cc3ccccc3oc2=O)s1
IC50 (cells): 2.83 µM (active)

O=C(COc1ccc(Cl)cc1Cl)Nn1c(=S)[nH]c2ncccc2c1=O
IC50 [5]: > 66 µM (inactive)
IC50 [6]: > 66 µM (inactive)

Nc1ccc(NC(=O)c2cccs2)cc1
AC50 [1]: 0.515 µM (active)

COc1ccc(O)c(-c2c(C)n[nH]c2-c2ccc(Cl)cc2)c1
EC50 [4]: > 195 µM (not active)

COc1ccc(NC(=O)C2Cc3ccccc3C(=O)O2)cc1 (centres undefined)
EC50 [4]: > 195 µM (not active)

COc1ccccc1NC(=O)CN1CCSc2ccccc21
AC50 [1]: 1.32 µM (active)

CC(NS(=O)(=O)c1ccc(OCC(=O)N2CCOCC2)c(Cl)c1)c1ccccc1 (centres undefined)
IC50 (Protein skinhead-1): > 100 µM (inactive)

S=C(N/N=C1\CCc2ccccc21)NC1CCCCC1
EC50 [4]: 87.7 µM (active)

CN(/C(=N\S(=O)(=O)c1ccccc1)C(F)(F)F)c1ccccc1
EC50 [4]: > 195 µM (not active)

COc1ccc(C(=O)OCC(=O)Nc2ccccc2)cc1[N+](=O)[O-]
IC50 (Fatty acid synthase [2]): 7.38 µM (active)
IC50 (Fatty acid synthase [3]): 9.96 µM (active)
